Values after ≈ are worked out from the molar mass of the structure shown. Some results are limits rather than exact numbers.

The MIC is the smallest concentration in the dilution series that meets the test's criterion for growth inhibition.

In the first test the test system is Shigella flexneri. The test can be described thus: In vitro antibacterial activity, agar dilution method (MIC). The class given is cell-based. The following applies: ATCC12022, Shigella flexneri ATCC 12022, 35°C, 18 hours, read-out: MIC. As for the experimental part:
According to the relevant operating procedures of the Clinical Laboratory Standards Institute (CLSI) in the United States, an antimicrobial susceptibility testing was conducted using the agar dilution method. A 1920 µg/mL stock solution was serially diluted twofold with sterile water to obtain dilutions of 960, 480, 240, 120, 60, 30, 15, 7.5, 3.75, 1.88, 0.94, 0.47 µg/mL, and 1 mL of the dilution was taken respectively from the dilutions with different concentrations and added to a Petri dish, to which 14 mL of melted MH agar medium was added and mixed thoroughly, and the final concentration of the drug in the petri dish is 128, 64, 32, 16, 8, 4, 2, 1, 0.5, 0.25, 0.12, 0.06, and 0.03 µ g/mL, respectively. The agar was allowed to solidify and set aside for later use.
(§1) The test bacteria were propagated in broth and adjusted to a turbidity of 0.5 McFarland (approximately 1-2 × 10^8 CFU/mL) using a turbidimeter before inoculation. The 0.5 McFarland bacterial solution was then diluted 10-fold in broth (approximately 1-2 × 10^7 CFU/mL). A multipoint inoculator was used to inoculate the above bacterial solution onto a series of plates containing different concentrations of drugs (with an inoculation amount of approximately 10^4 CFU per inoculation site). After incubation at a constant temperature of 35°C for 18 hours, results were observed. The minimum concentration of drugs contained in sterile growth plates was determined as the Minimal Inhibitory Concentration (MIC).
Turning to `C[C@H]1COc2c(N3CCN(C)CC3)c(F)cc3c(=O)c(C(=O)O)cn1c23` [Levofloxacin], the MIC is at most 0.03 µg/mL.

For the molecule `C[C@@H](O)[C@H]1C(=O)N2C(C(=O)O)=C(S[C@@H]3CN[C@H](C(=O)N(C)C)C3)[C@H](C)[C@H]12` [Meropenem], the MIC was at most 0.03 µg/mL.

The next test deals with Klebsiella pneumoniae. The description is as above. The format is cell-based. To be noted: Klebsiella pneumoniae, 18 h, Klebsiella pneumoniae 09-20 (mcr-1); agar dilution, 35°C, 18 hours; read-out: MIC. As for the experimental part:
(§2) According to the relevant operating procedures of the Clinical Laboratory Standards Institute (CLSI) in the United States, an antimicrobial susceptibility testing was conducted using the agar dilution method. […]. The agar was allowed to solidify and set aside for later use.
as §1
On to `C[C@H]1COc2c(N3CCN(C)CC3)c(F)cc3c(=O)c(C(=O)O)cn1c23` [Levofloxacin], for which the MIC is 16 µg/mL (≈ 44.3 µM).

Consider `C[C@@H](O)[C@H]1C(=O)N2C(C(=O)O)=C(S[C@@H]3CN[C@H](C(=O)N(C)C)C3)[C@H](C)[C@H]12` [Meropenem], for which the MIC is at most 0.03 µg/mL.

The same test, now with this note: Klebsiella pneumoniae, 18 h, Klebsiella pneumoniae 17-R27 (CRE); agar dilution, 35°C, 18 hours; read-out: MIC.
Turning to `C[C@H]1COc2c(N3CCN(C)CC3)c(F)cc3c(=O)c(C(=O)O)cn1c23` [Levofloxacin], the MIC was found to be 16 µg/mL (≈ 44.3 µM).

Consider `C[C@@H](O)[C@H]1C(=O)N2C(C(=O)O)=C(S[C@@H]3CN[C@H](C(=O)N(C)C)C3)[C@H](C)[C@H]12` [Meropenem], for which the MIC worked out at 0.25 µg/mL (≈ 0.652 µM).

The test is the same for the next values; noted with them: Klebsiella pneumoniae, 18 h, Klebsiella pneumoniae 18-8 (ESBLs-producing); agar dilution, 35°C, 18 hours; read-out: MIC.
With `C[C@H]1COc2c(N3CCN(C)CC3)c(F)cc3c(=O)c(C(=O)O)cn1c23` [Levofloxacin], the MIC came to 1 µg/mL (≈ 2.77 µM).

Consider `C[C@@H](O)[C@H]1C(=O)N2C(C(=O)O)=C(S[C@@H]3CN[C@H](C(=O)N(C)C)C3)[C@H](C)[C@H]12` [Meropenem], for which the MIC was at most 0.03 µg/mL.

Staying with this test, now noted: Klebsiella pneumoniae, ATCC700603, 18 h, Klebsiella pneumoniae ATCC 700603 (ESBLs-producing); agar dilution, 35°C, 18 hours; read-out: MIC.
For `C[C@H]1COc2c(N3CCN(C)CC3)c(F)cc3c(=O)c(C(=O)O)cn1c23` [Levofloxacin], the MIC came to 1 µg/mL (≈ 2.77 µM).

Regarding `C[C@@H](O)[C@H]1C(=O)N2C(C(=O)O)=C(S[C@@H]3CN[C@H](C(=O)N(C)C)C3)[C@H](C)[C@H]12` [Meropenem], the MIC is at most 0.03 µg/mL.

Still in this test, the particulars now being: Klebsiella pneumoniae, ATCCBAA2146, 18 h, Klebsiella pneumoniae ATCC BAA-2146 (CRE, NDM-1-producing); agar dilution, 35°C, 18 hours.
For `C[C@H]1COc2c(N3CCN(C)CC3)c(F)cc3c(=O)c(C(=O)O)cn1c23` [Levofloxacin], the MIC is over 128 µg/mL.

Staying with this test, now noted: Klebsiella pneumoniae, ATCCBAA2146, 18 h, Klebsiella pneumoniae ATCC BAA-2146 (CRE, NDM-1-producing); agar dilution, 35°C, 18 hours; read-out: MIC.
Take `C[C@@H](O)[C@H]1C(=O)N2C(C(=O)O)=C(S[C@@H]3CN[C@H](C(=O)N(C)C)C3)[C@H](C)[C@H]12` [Meropenem]: the MIC was 32 µg/mL (≈ 83.4 µM).

A further test has as its system Enterobacter aerogenes. Described as above. The format is cell-based. The following applies: Klebsiella aerogenes, ATCC13048; Enterobacter aerogenes ATCC 13048; agar dilution, 35°C, 18 hours; read-out: MIC. The method, then:
as §2, §1
In general terms: In agar dilution the substance is mixed into plates at graded concentrations.
For the molecule `C[C@H]1COc2c(N3CCN(C)CC3)c(F)cc3c(=O)c(C(=O)O)cn1c23` [Levofloxacin], the MIC is 0.06 µg/mL (≈ 0.166 µM).

As to `C[C@@H](O)[C@H]1C(=O)N2C(C(=O)O)=C(S[C@@H]3CN[C@H](C(=O)N(C)C)C3)[C@H](C)[C@H]12` [Meropenem], the MIC amounted to 0.06 µg/mL (≈ 0.156 µM).

The test system of a further test is Proteus vulgaris. The test is described as above. The format is cell-based. The following applies: ATCC29905; Proteus vulgaris ATCC 29905; agar dilution, 35°C, 18 hours; read-out: MIC. As for the experimental part: as §2, §1
Regarding `C[C@H]1COc2c(N3CCN(C)CC3)c(F)cc3c(=O)c(C(=O)O)cn1c23` [Levofloxacin], the MIC is at most 0.03 µg/mL.

Consider `C[C@@H](O)[C@H]1C(=O)N2C(C(=O)O)=C(S[C@@H]3CN[C@H](C(=O)N(C)C)C3)[C@H](C)[C@H]12` [Meropenem], for which the MIC is at most 0.03 µg/mL.

In a further test the test system is Escherichia coli. The test is described as above. The format is cell-based. To be noted: Escherichia coli, 18 h, Escherichia coli 13-43 (mcr-1); agar dilution, 35°C, 18 hours; read-out: MIC. The method, then:
as §2, §1
For `C[C@H]1COc2c(N3CCN(C)CC3)c(F)cc3c(=O)c(C(=O)O)cn1c23` [Levofloxacin], the MIC came to 64 µg/mL (≈ 177 µM).

In the case of `C[C@@H](O)[C@H]1C(=O)N2C(C(=O)O)=C(S[C@@H]3CN[C@H](C(=O)N(C)C)C3)[C@H](C)[C@H]12` [Meropenem], the MIC is at most 0.03 µg/mL.

The same test, now with this note: Escherichia coli, 18 h, Escherichia coli 17-R28 (CRE, NDM-1-producing); agar dilution, 35°C.
`C[C@@H](O)[C@H]1C(=O)N2C(C(=O)O)=C(S[C@@H]3CN[C@H](C(=O)N(C)C)C3)[C@H](C)[C@H]12` [Meropenem] came in with an MIC of 128 µg/mL (≈ 334 µM).

The same test, now with this note: Escherichia coli, 18 h, Escherichia coli 17-R28 (CRE, NDM-1-producing); agar dilution, 35°C, 18 hours; read-out: MIC.
Consider `C[C@H]1COc2c(N3CCN(C)CC3)c(F)cc3c(=O)c(C(=O)O)cn1c23` [Levofloxacin], for which the MIC worked out at 8 µg/mL (≈ 22.1 µM).

Still in this test, the particulars now being: Escherichia coli, ATCC2469, 18 h, Escherichia coli ATCC 2469 (CRE, NDM-1-producing); agar dilution, 35°C, 18 hours; read-out: MIC.
Consider `C[C@H]1COc2c(N3CCN(C)CC3)c(F)cc3c(=O)c(C(=O)O)cn1c23` [Levofloxacin], for which the MIC was 16 µg/mL (≈ 44.3 µM).

Turning to `C[C@@H](O)[C@H]1C(=O)N2C(C(=O)O)=C(S[C@@H]3CN[C@H](C(=O)N(C)C)C3)[C@H](C)[C@H]12` [Meropenem], the MIC amounted to 8 µg/mL (≈ 20.9 µM).

Still in this test, the particulars now being: Escherichia coli, ATCC35218, 18 h, Escherichia coli ATCC 35218 (ESBLs-producing); agar dilution, 35°C, 18 hours; read-out: MIC.
As to `C[C@H]1COc2c(N3CCN(C)CC3)c(F)cc3c(=O)c(C(=O)O)cn1c23` [Levofloxacin], the MIC was at most 0.03 µg/mL.

`C[C@@H](O)[C@H]1C(=O)N2C(C(=O)O)=C(S[C@@H]3CN[C@H](C(=O)N(C)C)C3)[C@H](C)[C@H]12` [Meropenem]: the MIC is at most 0.03 µg/mL.

In another test the test system is Pantoea agglomerans. The description is as above. The class given is cell-based. To be noted: ATCC27993; Pantoea agglomerans ATCC 27993; agar dilution, 35°C, 18 hours; read-out: MIC. As for the experimental part: as §2, §1
For the molecule `C[C@H]1COc2c(N3CCN(C)CC3)c(F)cc3c(=O)c(C(=O)O)cn1c23` [Levofloxacin], the MIC amounted to 0.06 µg/mL (≈ 0.166 µM).

Consider `C[C@@H](O)[C@H]1C(=O)N2C(C(=O)O)=C(S[C@@H]3CN[C@H](C(=O)N(C)C)C3)[C@H](C)[C@H]12` [Meropenem], for which the MIC is at most 0.03 µg/mL.

Another test deals with Proteus mirabilis. The test is described as above. The class given is cell-based. To be noted: ATCC49565; Proteus mirabilis ATCC 49565; agar dilution, 35°C, 18 hours; read-out: MIC. As for the experimental part:
as §2, §1
In the case of `C[C@H]1COc2c(N3CCN(C)CC3)c(F)cc3c(=O)c(C(=O)O)cn1c23` [Levofloxacin], the MIC came out at 0.12 µg/mL (≈ 0.332 µM).

In the case of `C[C@@H](O)[C@H]1C(=O)N2C(C(=O)O)=C(S[C@@H]3CN[C@H](C(=O)N(C)C)C3)[C@H](C)[C@H]12` [Meropenem], the MIC worked out at 0.06 µg/mL (≈ 0.156 µM).

In a further test the test system is Citrobacter freundii. Described as above. The class given is cell-based. The following applies: ATCC43864; Citrobacter freundii ATCC 43864; agar dilution, 35°C, 18 hours; read-out: MIC. As for the experimental part:
as §2, §1
As for `C[C@H]1COc2c(N3CCN(C)CC3)c(F)cc3c(=O)c(C(=O)O)cn1c23` [Levofloxacin], the MIC was at most 0.03 µg/mL.

On to `C[C@@H](O)[C@H]1C(=O)N2C(C(=O)O)=C(S[C@@H]3CN[C@H](C(=O)N(C)C)C3)[C@H](C)[C@H]12` [Meropenem], for which the MIC was at most 0.03 µg/mL.

The next test relates to Serratia marcescens. The description is as above. The format is cell-based. The following applies: ATCC21074; Serratia marcescens ATCC 21074; agar dilution, 35°C, 18 hours; read-out: MIC. As for the experimental part: as §2, §1
For `C[C@H]1COc2c(N3CCN(C)CC3)c(F)cc3c(=O)c(C(=O)O)cn1c23` [Levofloxacin], the MIC was 0.25 µg/mL (≈ 0.692 µM).

Take `C[C@@H](O)[C@H]1C(=O)N2C(C(=O)O)=C(S[C@@H]3CN[C@H](C(=O)N(C)C)C3)[C@H](C)[C@H]12` [Meropenem]: the MIC was 0.06 µg/mL (≈ 0.156 µM).

A further test deals with Pseudomonas aeruginosa. The description is as above. The format is cell-based. The following applies: Pseudomonas aeruginosa PAO1; agar dilution, 35°C, 18 hours; read-out: MIC. As for the experimental part:
as §2, §1
Turning to `C[C@H]1COc2c(N3CCN(C)CC3)c(F)cc3c(=O)c(C(=O)O)cn1c23` [Levofloxacin], the MIC was 0.5 µg/mL (≈ 1.38 µM).

For the molecule `C[C@@H](O)[C@H]1C(=O)N2C(C(=O)O)=C(S[C@@H]3CN[C@H](C(=O)N(C)C)C3)[C@H](C)[C@H]12` [Meropenem], the MIC was 2 µg/mL (≈ 5.22 µM).

The next test has as its system Enterobacter cloacae. The description is as above. The following applies: Enterobacter cloacae CDC1000654 (NDM-1-producing); agar dilution, 35°C, 18 hours; read-out: MIC. The format is cell-based. The method, then: According to the relevant operating procedures of the Clinical Laboratory Standards Institute (CLSI) in the United States, an antimicrobial susceptibility testing was conducted using the agar dilution method. […] The agar was allowed to solidify and set aside for later use.
as §1
As to `C[C@H]1COc2c(N3CCN(C)CC3)c(F)cc3c(=O)c(C(=O)O)cn1c23` [Levofloxacin], the MIC came to 64 µg/mL (≈ 177 µM).

Turning to `C[C@@H](O)[C@H]1C(=O)N2C(C(=O)O)=C(S[C@@H]3CN[C@H](C(=O)N(C)C)C3)[C@H](C)[C@H]12` [Meropenem], the MIC is 4 µg/mL (≈ 10.4 µM).

Values taken from patent EP4745118A1, “HYDROXAMIC ACID COMPOUND OR PHARMACEUTICALLY ACCEPTABLE SALT THEREOF, AND USE THEREOF AND PREPARATION METHOD THEREFOR” (priority 2023, dated 2025).
